Here are results for 17 compounds from patent US11957687B2 (REGENERON PHARMACEUTICALS, INC., priority 2019, dated 2024).

Data set [1] in a line: Microsome stability assay, mouse liver microsomes. It is filed as in vitro ADME. To be noted: 1 μM compound, 0.5 mg/mL microsomal protein. How it is done: (§1) Compounds of the disclosure were screened in microsome stability assays. For the screen, test compounds were incubated at 37° C. with either human liver microsomes (Corning; #452117) or mouse liver microsomes (XenoTech; #M1000), pooled from multiple donors, at 1 μM in the presence of a NADPH regenerating system at 0.5 mg/mL microsomal protein. Positive controls included in the assay were testosterone (3A4 substrate), propafenone (2D6) and diclofenac (2C9). Samples were removed at different time points (0, 5, 10, 20, 30 and 60 minutes) and immediately mixed with cold acetonitrile containing internal standard (IS, 200 ng/mL tolbutamide and 200 ng/mL labetalol). Test compounds incubated with microsomes for 60 minutes without the NADPH regenerating system was also included. A single point for each test condition (n=1) was obtained, and samples were analyzed by LC/MS/MS. Disappearance of the test compound was assessed based on peak area ratios of analyte/IS (no standard curve).

A short description of data set [2]: Microsome stability assay, human liver microsomes. It is filed as in vitro ADME. The conditions noted are these: 1 μM compound, 0.5 mg/mL microsomal protein; for microsomal CLint at 1 h, 1 µM / half-life at 1 h, 1 µM / microsomal CLint at 1 μM / half-life at 1 μM: human, human liver microsomes, pooled, NADPH, 37° C.; for microsomal CLint at 1 h, 1 µM / microsomal CLint at 1 μM: read-out: Microsome Stability Human liver microsomes Cl; for half-life at 1 h, 1 µM / half-life at 1 μM: read-out: Microsome Stability Human liver microsomes T½. As to the method:
as §1

The target of data set [3] is HSD17B13 (Homo sapiens (Human), UniProt Q7Z5P4). The data set can be described thus: HSD17B13 enzymatic inhibition assay (150 nM or 50 nM HSD17B13). It is filed as biochemical.
HSD17B13, sequence (Q7Z5P4 other isoform, or with tags, fused parts or gaps): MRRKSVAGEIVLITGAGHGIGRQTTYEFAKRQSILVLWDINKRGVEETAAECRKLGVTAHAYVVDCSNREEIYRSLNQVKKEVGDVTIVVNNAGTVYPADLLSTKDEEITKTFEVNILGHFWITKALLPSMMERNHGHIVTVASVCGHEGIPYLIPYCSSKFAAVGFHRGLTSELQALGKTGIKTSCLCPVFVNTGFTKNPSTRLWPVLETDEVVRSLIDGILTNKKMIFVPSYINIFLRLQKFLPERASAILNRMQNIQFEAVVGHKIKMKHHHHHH
[4] abbreviates: mouse, mouse liver microsomes, pooled, NADPH, 37° C., read-out: Microsome Stability Mouse liver microsomes Cl.
The mark [5] stands for this setting: mouse, mouse liver microsomes, pooled, NADPH, 37° C., read-out: Microsome Stability Mouse liver microsomes T½.
Setting [6] is: 50 nM HSD17B13, read-out: Inhibition of 50 nM of HSD17B13 IC50.
The mark [7] stands for this setting: 150 nM HSD17B13, read-out: Inhibition of 150 nM of HSD17B13 IC50.

Read-outs that look alike come from different tables or passages of the source. Some results are limits rather than exact numbers.

As to `O=C(NC(c1ccccc1)c1ccccc1)c1ccc(C(F)(F)F)[nH]c1=O` [Compound 1, N-benzhydryl-2-oxo-6-(trifluoromethyl)-1,2-dihydropyridine-3-carboxamide], in data set [1], the “Microsome Stability Mouse liver microsomes % Remaining @60 min” value is reported as 29.00%. In addition, the microsomal CLint at 1 h, 1 µM in data set [1] (setting [4]) is 42.4 µL/min/mg. Also, the half-life at 1 h, 1 µM in data set [1] (setting [5]) worked out at 32.7 min. In addition, in data set [2], the “Microsome Stability Human liver microsomes % Remaining @60 min” value is 66.90%; the microsomal CLint at 1 h, 1 µM was 13.4 µL/min/mg; the half-life at 1 h, 1 µM is 103 min. The half-maximal inhibitory concentration (IC50) in data set [3] (setting [6]) turned out to be 1750 nM.

On to `CS(=O)(=O)Nc1ccc(C(NC(=O)c2ccc(C(F)(F)F)[nH]c2=O)c2ccccc2)cc1` (stereo not shown) [Compound 7A, N-((4-(methylsulfonamido)phenyl)(phenyl)methyl)-2-oxo-6-(trifluoromethyl)-1,2-dihydropyridine-3-carboxamide], for which, in data set [2], the “Microsome Stability Human liver microsomes % Remaining @60 min” value was determined as 93.90%, the microsomal CLint at 1 μM is less than 9.6 µL/min/mg and the half-life at 1 μM was more than 145 min. The half-maximal inhibitory concentration (IC50) in data set [3] (setting [6]) is 1100 nM.

Take `CC(C)Cc1ccc(C(NC(=O)c2ccc(C(F)(F)F)[nH]c2=O)c2ccccc2)cc1` (stereo not shown) [Compound 13, N-((4-isobutylphenyl)(phenyl)methyl)-2-oxo-6-(trifluoromethyl)-1,2-dihydropyridine-3-carboxamide]: in data set [2], the “Microsome Stability Human liver microsomes % Remaining @60 min” value came to 1.44%; the microsomal CLint at 1 h, 1 µM came to 138 µL/min/mg; the half-life at 1 h, 1 µM turned out to be 10.1 min. Moreover, the IC50 in data set [3] (setting [6]) was 940 nM.

`O=C(NC(c1ccccc1)c1ccc(Oc2ccccc2)cc1)c1ccc(C(F)(F)F)[nH]c1=O` (stereo not shown) [Compound 16, N-((4-phenoxyphenyl)(phenyl)methyl)-2-oxo-6-(trifluoromethyl)-1,2-dihydropyridine-3-carboxamide]: in data set [2], the “Microsome Stability Human liver microsomes % Remaining @60 min” value is recorded as 23.30%, the microsomal CLint at 1 μM was found to be 45.2 µL/min/mg and the half-life at 1 μM came out at 30.7 min. The IC50 in data set [3] (setting [6]) was found to be 970 nM.

As to `O=C(NC(c1ccccc1)c1cccc(O)c1)c1ccc(C(F)(F)F)[nH]c1=O` (stereo not shown) [Compound 18, N-((3-hydroxyphenyl)(phenyl)methyl)-2-oxo-6-(trifluoromethyl)-1,2-dihydropyridine-3-carboxamide], in data set [2], the “Microsome Stability Human liver microsomes % Remaining @60 min” value stood at 36.60%; the microsomal CLint at 1 h, 1 µM was 33 µL/min/mg; the half-life at 1 h, 1 µM is 42 min. In data set [3] (setting [6]), the IC50 was 2480 nM.

Consider `O=C(NC(c1ccccc1)c1ccccc1O)c1ccc(C(F)(F)F)[nH]c1=O` (stereo not shown) [Compound 35, N-((2-hydroxyphenyl)(phenyl)methyl)-2-oxo-6-(trifluoromethyl)-1,2-dihydropyridine-3-carboxamide], for which, in data set [2], the “Microsome Stability Human liver microsomes % Remaining @60 min” value turned out to be 14.90%; the microsomal CLint at 1 h, 1 µM is 63.4 µL/min/mg; the half-life at 1 h, 1 µM worked out at 21.9 min. In data set [3] (setting [7]), the IC50 amounted to 2780 nM.

Regarding `CCCc1ccc(C(NC(=O)c2ccc(C(F)(F)F)[nH]c2=O)c2ccccc2)cc1` (stereo not shown) [Compound 36, 2-oxo-N-(phenyl(4-propylphenyl)methyl)-6-(trifluoromethyl)-1,2-dihydropyridine-3-carboxamide], in data set [2], the “Microsome Stability Human liver microsomes % Remaining @60 min” value was 2.00%; the microsomal CLint at 1 h, 1 µM was 126 µL/min/mg; the half-life at 1 h, 1 µM amounted to 11 min. Further, the IC50 in data set [3] (setting [6]) came out at 680 nM.

`CC(C)c1ccc(C(NC(=O)c2ccc(C(F)(F)F)[nH]c2=O)c2ccccc2)cc1` (stereo not shown) [Compound 37, N-((4-isopropylphenyl)(phenyl)methyl)-2-oxo-6-(trifluoromethyl)-1,2-dihydropyridine-3-carboxamide]: in data set [2], the “Microsome Stability Human liver microsomes % Remaining @60 min” value is reported as 5.70%; the microsomal CLint at 1 h, 1 µM was found to be 92.4 µL/min/mg; the half-life at 1 h, 1 µM amounted to 15 min. Also, the half-maximal inhibitory concentration (IC50) in data set [3] (setting [6]) was determined as 780 nM.

As to `Cc1ccc(C(=O)NC(c2ccccc2)c2ccccc2O)c(=O)[nH]1` (stereo not shown) [Compound 65, N-((2-hydroxyphenyl)(phenyl)methyl)-6-methyl-2-oxo-1,2-dihydropyridine-3-carboxamide], in data set [2], the “Microsome Stability Human liver microsomes % Remaining @60 min” value stood at 50.10%; the microsomal CLint at 1 h, 1 µM was found to be 118 µL/min/mg; the half-life at 1 μM was 11.8 min. Further, the IC50 in data set [3] (setting [7]) is more than 30000 nM.

Regarding `COc1ccc2c(c1)CCC2NC(=O)c1ccc(C(F)(F)F)[nH]c1=O` (stereo not shown) [Compound 134, N-(5-methoxy-2,3-dihydro-1H-inden-1-yl)-2-oxo-6-(trifluoromethyl)-1,2-dihydropyridine-3-carboxamide], in data set [2], the “Microsome Stability Human liver microsomes % Remaining @60 min” value stood at 0.27%; the microsomal CLint at 1 h, 1 µM was 410 µL/min/mg; the half-life at 1 h, 1 µM came to 3.38 min. In addition, the IC50 in data set [3] (setting [6]) is 1410 nM.

As to `Cc1ccc(CNC(=O)c2ccc(C(F)(F)F)[nH]c2=O)cc1` [Compound 215, N-(4-methylbenzyl)-2-oxo-6-(trifluoromethyl)-1,2-dihydropyridine-3-carboxamide], in data set [2], the “Microsome Stability Human liver microsomes % Remaining @60 min” value stood at 1.00%; the microsomal CLint at 1 h, 1 µM worked out at 414 µL/min/mg; the half-life at 1 h, 1 µM is 3.35 min. Also, in data set [3] (setting [6]), the IC50 came to 2200 nM.

Regarding `COc1ccc2c(c1)CCCC2NC(=O)c1ccc(C(F)(F)F)[nH]c1=O` (stereo not shown) [Compound 234, N-(6-methoxy-1,2,3,4-tetrahydronaphthalen-1-yl)-2-oxo-6-(trifluoromethyl)-1,2-dihydropyridine-3-carboxamide], the “Microsome Stability Mouse liver microsomes % Remaining @60 min” value in data set [1] is 1%. In addition, the microsomal CLint at 1 h, 1 µM in data set [1] (setting [4]) is 303 µL/min/mg; in data set [2], 369 µL/min/mg. For the same compound, the half-life at 1 h, 1 µM worked out at 4.56 min in data set [1] (setting [5]) and 3.76 min in data set [2]. Moreover, the “Microsome Stability Human liver microsomes % Remaining @60 min” value in data set [2] came out at 1%. The IC50 in data set [3] (setting [6]) amounted to 410 nM.

Consider `Cc1ccc2c(c1)CCCC2NC(=O)c1ccc(C(F)(F)F)[nH]c1=O` (stereo not shown) [Compound 235, N-(6-methyl-1,2,3,4-tetrahydronaphthalen-1-yl)-2-oxo-6-(trifluoromethyl)-1,2-dihydropyridine-3-carboxamide], for which, in data set [1], the “Microsome Stability Mouse liver microsomes % Remaining @60 min” value came to 50%. Also, in data set [1] (setting [4]), the microsomal CLint at 1 h, 1 µM was determined as 23.6 µL/min/mg. The half-life at 1 h, 1 µM in data set [1] (setting [5]) worked out at 58.7 min. Also, in data set [2], the “Microsome Stability Human liver microsomes % Remaining @60 min” value worked out at 1%; the microsomal CLint at 1 h, 1 µM worked out at 547 µL/min/mg; the half-life at 1 h, 1 µM came to 2.53 min. The IC50 in data set [3] (setting [6]) came out at 200 nM.

On to `COc1ccc2c(c1)Oc1cc(OC)ccc1C2NC(=O)c1ccc(C(F)F)[nH]c1=O` [Compound 273, 6-(difluoromethyl)-N-(3,6-dimethoxy-9H-xanthen-9-yl)-2-oxo-1,2-dihydropyridine-3-carboxamide], for which the “Microsome Stability Mouse liver microsomes % Remaining @60 min” value in data set [1] was determined as 39%. For the same compound, the microsomal CLint at 1 h, 1 µM in data set [1] (setting [4]) stood at 31 µL/min/mg. Further, the half-life at 1 h, 1 µM in data set [1] (setting [5]) was 44.7 min. Besides, in data set [2], the “Microsome Stability Human liver microsomes % Remaining @60 min” value is 66.40%; the microsomal CLint at 1 h, 1 µM turned out to be 13.2 µL/min/mg; the half-life at 1 h, 1 µM is 105 min. For the same compound, the IC50 in data set [3] (setting [6]) came to 340 nM.

Consider `CCC1CCc2cc(O)ccc2C1NC(=O)c1ccc(C(F)(F)F)[nH]c1=O` (stereo not shown) [Compound 284, N-(2-ethyl-6-hydroxy-1,2,3,4-tetrahydronaphthalen-1-yl)-2-oxo-6-(trifluoromethyl)-1,2-dihydropyridine-3-carboxamide], for which the “Microsome Stability Mouse liver microsomes % Remaining @60 min” value in data set [1] was 76.40%. For the same compound, the microsomal CLint at 1 μM in data set [1] (setting [4]) is less than 9.6 µL/min/mg. Also, the half-life at 1 μM in data set [1] (setting [5]) was more than 145 min. In addition, in data set [2], the “Microsome Stability Human liver microsomes % Remaining @60 min” value was 70.70%; the microsomal CLint at 1 h, 1 µM worked out at 9.82 µL/min/mg; the half-life at 1 h, 1 µM was 141 min. In addition, in data set [3] (setting [6]), the 50% inhibitory concentration (IC50) was found to be 340 nM.

As for `CCCC1CCc2cc(C)ccc2C1NC(=O)c1ccc(C(F)(F)F)[nH]c1=O` (stereo not shown) [Compound 285, N-(6-methyl-2-propyl-1,2,3,4-tetrahydronaphthalen-1-yl)-2-oxo-6-(trifluoromethyl)-1,2-dihydropyridine-3-carboxamide], the “Microsome Stability Mouse liver microsomes % Remaining @60 min” value in data set [1] came to 11.20%. In addition, the microsomal CLint at 1 h, 1 µM in data set [1] (setting [4]) was found to be 70.7 µL/min/mg. Further, the half-life at 1 h, 1 µM in data set [1] (setting [5]) stood at 19.6 min. Besides, in data set [2], the “Microsome Stability Human liver microsomes % Remaining @60 min” value is 1.49%; the microsomal CLint at 1 h, 1 µM was 137 µL/min/mg; the half-life at 1 h, 1 µM is 10.1 min. In addition, the IC50 in data set [3] (setting [6]) came to 30 nM.

Turning to `CCCC1Cc2ccc(C)cc2C1NC(=O)c1ccc(C(F)(F)F)[nH]c1=O` (stereo not shown) [Compound 291, N-(6-methyl-2-propyl-2,3-dihydro-1H-inden-1-yl)-2-oxo-6-(trifluoromethyl)-1,2-dihydropyridine-3-carboxamide], in data set [1], the “Microsome Stability Mouse liver microsomes % Remaining @60 min” value is reported as 52.20%. The microsomal CLint at 1 h, 1 µM in data set [1] (setting [4]) is 21.3 µL/min/mg. The half-life at 1 h, 1 µM in data set [1] (setting [5]) stood at 65 min. In addition, in data set [2], the “Microsome Stability Human liver microsomes % Remaining @60 min” value was 17.90%; the microsomal CLint at 1 h, 1 µM was found to be 54.5 µL/min/mg; the half-life at 1 h, 1 µM turned out to be 25.5 min.
